In PMC7035334, “Effects of SDS on the activity and conformation of protein tyrosine phosphatase from thermus thermophilus HB27” (Scientific Reports, 2020) one finds IC50 data, which are given here for 1 compound.

The experiment has as its target T1, PTPase from thermus thermophilus HB27 (Thermus thermophilus, UniProt Q72JF6).
T1 construct: gene TT_C0816; recombinant, cloned into pET-28a(+), E. coli BL21(DE3), purified; LMW PTPase EC 3.1.3.48; P-loop CLGNICRS, residues Cys11, Cys16, Arg17, Asp123 (Tt1001)
T1 sequence (Q72JF6 1-161): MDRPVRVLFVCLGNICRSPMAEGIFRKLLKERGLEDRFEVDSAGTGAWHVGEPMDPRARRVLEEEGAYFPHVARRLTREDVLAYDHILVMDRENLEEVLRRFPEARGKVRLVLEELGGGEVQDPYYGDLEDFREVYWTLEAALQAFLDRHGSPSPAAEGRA
Nature of the experiment: residual pNPP phosphatase activity, absorbance […] nm. Type of experiment: biochemical.

`CCCCCCCCCCCCOS(=O)(=O)O` [SDS] returned a concentration for half-maximal inhibition (IC50) of 11.3 µM.

What is called IC50 is the midpoint of a concentration-inhibition curve. A high value points to weaker potency.
